Source: publication PMC12673918, “Design, Synthesis, and Selective Antiproliferative Activity of Indolizine Derivatives as Microtubule Destabilizers” (Archiv Der Pharmazie, 2025)

What was measured:
human P2X7 receptor = molecular target: T1, human P2X7 receptor (Homo sapiens, UniProt Q99572); assay: YO‐PRO‐1 dye uptake assay for the P2X7 receptor; assay type: cell-based; details: for inhibition at 10 µM: P2X7, read-out: % Inhibition of P2X7R at 10 µM compounds’ concentration; for off‐target activity against the P2X7 receptor: 10 μM
T1 construct: host or cells: HEK-293
T1 sequence (Q99572 1-595): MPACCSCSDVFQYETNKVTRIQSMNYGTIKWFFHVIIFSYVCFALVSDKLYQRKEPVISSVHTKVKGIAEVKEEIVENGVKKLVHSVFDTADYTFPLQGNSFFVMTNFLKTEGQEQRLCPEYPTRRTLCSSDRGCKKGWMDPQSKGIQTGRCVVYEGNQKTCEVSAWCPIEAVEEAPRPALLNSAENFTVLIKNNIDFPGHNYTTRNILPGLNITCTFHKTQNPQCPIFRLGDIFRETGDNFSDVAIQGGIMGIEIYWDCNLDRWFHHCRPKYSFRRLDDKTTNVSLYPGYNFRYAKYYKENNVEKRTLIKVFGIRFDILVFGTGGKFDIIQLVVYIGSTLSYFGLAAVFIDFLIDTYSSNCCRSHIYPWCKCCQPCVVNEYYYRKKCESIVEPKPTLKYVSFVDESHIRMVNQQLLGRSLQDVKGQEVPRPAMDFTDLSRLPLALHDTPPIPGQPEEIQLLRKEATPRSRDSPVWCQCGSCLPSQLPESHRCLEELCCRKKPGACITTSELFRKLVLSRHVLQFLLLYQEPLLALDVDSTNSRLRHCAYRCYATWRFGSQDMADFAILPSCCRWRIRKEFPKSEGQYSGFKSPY
Protocol: HEK‐293 cell lines stably expressing human P2X7 receptor (hP2X7R‐HEK‐293, B'SYS GmbH, Witterswil, Switzerland) were maintained in a 50/50 mix of Dulbecco's Modified Eagle Medium and F12 medium (DMEM/F12) supplemented with 9% (v/v) FCS, 1% (v/v) Penicillin/Streptomycin (10000 I.U./mL, 10 mg/mL in 0.9% NaCl) and G418 (100 µg/mL) at 37°C and 5% CO2. Cells were subcultured in cell culture 75 cm^2 flasks and split every 2‐4 days (1:3; 1:6; 1:10) once confluent.
HEK‐293 cell lines stably expressing human P2X7 receptor were seeded into black‐walled Nunc 96‐well optical bottom plates (Thermo Fisher Scientific) at 2.0–4.0 × 10^4 cells/well and incubated at 37°C for 24–48 h. After removing the culture medium, cells were washed with 100 µL wash buffer (280 mM Sucrose; 5.6 mM KCl; 0.5 mM CaCl2; 10 mM D‐Glucose; 10 mM HEPES; 5 mM N‐Methyl‐D‐glucamine (pH 7.4)). Then, 50 µL assay buffer (280 mM Sucrose; 6.4 mM KCl, 10 mM D‐Glucose; 10 mM HEPES; 5.0 mM N‐Methyl‐D‐glucamine (pH 7.4)) and 50 µL of antagonist dilutions (10^–5–10^–9 M) in assay buffer were added, and the cells were incubated at 37°C for 30 min. […] Finally, the uptake of YO‐PRO‐1 dye was recorded in a 9‐point‐well scan by following the fluorescence change using a FlexStation 3 Multi‐Mode Microplate Reader (Molecular Devices, San Jose, CA, USA, Software SoftMax7 Pro, endpoint protocol, well scan with reading pattern “fill scan”, λ ex = 485 nm, λ em = 535 nm). To determine the concentration‐dependent uptake inhibition by antagonists, the YO‐PRO‐1 uptake, expressed as RFU, was plotted against the concentrations of the compounds.

human P2X4 receptor = molecular target: T2, human P2X4 receptor (Homo sapiens, UniProt Q99571); assay: Ca2+‐flux assay for the hP2X4 receptor; assay type: cell-based; details: read-out: % Inhibition of P2X4R at 10 µM compounds’ concentration
T2 construct: expressed in transfected cells; host or cells: human 1321N1 astrocytoma cells
T2 sequence (Q99571 1-388): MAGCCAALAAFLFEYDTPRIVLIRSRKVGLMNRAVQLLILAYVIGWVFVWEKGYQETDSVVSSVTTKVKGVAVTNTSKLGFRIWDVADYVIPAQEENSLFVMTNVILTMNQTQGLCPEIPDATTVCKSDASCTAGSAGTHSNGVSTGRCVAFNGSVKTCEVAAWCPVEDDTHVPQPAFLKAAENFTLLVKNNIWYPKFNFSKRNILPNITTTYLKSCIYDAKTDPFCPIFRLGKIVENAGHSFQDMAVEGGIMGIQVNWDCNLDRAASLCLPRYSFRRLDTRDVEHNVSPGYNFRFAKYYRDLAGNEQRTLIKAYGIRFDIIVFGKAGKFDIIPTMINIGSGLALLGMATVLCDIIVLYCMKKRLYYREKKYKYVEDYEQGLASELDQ
Protocol: Human 1321N1 astrocytoma cells stably expressing the human P2X4 receptor (generated in‐house) were cultured in Dulbecco's Modified Eagle Medium supplemented with 9% (v/v) FCS, 1% (v/v) Penicillin/Streptomycin (10000 I.U./mL, 10 mg/mL in 0.9% NaCl) and puromycin (1 µg/mL) as a selection antibiotic at 37°C and 5% CO2. Cells were subcultured in cell culture 75 cm^2 flasks and split every 2–4 days (1:5; 1:6) once confluent.
1321N1 cells stably expressing human P2X4 receptor were seeded into black‐walled 96‐well plates (Thermo Fisher Scientific) at 2.5 × 10^4 cells/well and incubated at 37°C for 24–48 h. All test compounds were diluted in assay buffer solution (SBS: 135 mM NaCl; 5 mM KCl; 1 mM MgCl2.6 H2O; 1.8 mM CaCl2; 5.6 mM D‐Glucose; 10 mM HEPES, 0.1% (m/v) BSA, 0.05% (m/v) gelatine, 2.3 mM probenecid). The culture medium was removed, and 100 µL of 4 μM fluorescent Ca^2+ indicator Calbryte520AM in SBS was added and incubated at 37°C for 1 h. The dye solution was then removed, 100 µL of SBS solution and 50 µL of antagonist dilutions (10^–5–10^–9 M) in SBS were added, and the cells were incubated at room temperature for an extra 30 min. Finally, 50 µL of ATP (at a concentration of the previously determined EC50‐ value) was added by using FlexStation 3 Multi‐Mode Microplate Reader (Molecular Devices, San Jose, CA, USA, Software SoftMax7 Pro). The changes in intracellular Ca^2+ ion concentrations were monitored over 200 s (20 s baseline) by measuring the fluorescence signal at λ ex = 494 nm and λ em = 516 nm ([…] cut‐off). The concentration‐dependent decrease in Ca^2+‐flux, expressed as RFU, was plotted against the concentrations of the compounds.

Compound	inhibition at 10 µM (human P2X7 receptor)	inhibition at 10 µM (human P2X4 receptor)	off‐target activity against the P2X7 receptor (human P2X7 receptor)
COc1ccc2c(C(=O)c3cc(OC)c(OC)c(OC)c3)c(C(C)(C)C)cn2c1 [Compound 8b, [2‐(Tert‐Butyl)‐6‐Methoxyindolizin‐1‐yl](3,4,5‐Trimethoxyphenyl)Methanone]	-7%	-6%	–
COc1ccc2c(C(=O)c3cc(OC)c(OC)c(OC)c3)c(C(F)(F)F)cn2c1 [Compound 8e, [6‐methoxy‐2‐(trifluoromethyl)indolizin‐1‐yl](3,4,5‐trimethoxyphenyl)methanone]	8%	-9%	none of the synthesized compounds, including 8e and 8h, showed significant activity
CCCc1cn2cc(OC)ccc2c1C(=O)c1cc(OC)c(OC)c(OC)c1 [Compound 8h, (6‐methoxy‐2‐propylindolizin‐1‐yl)(3,4,5‐trimethoxyphenyl)methanone]	-1%	6%	none of the synthesized compounds, including 8e and 8h, showed significant activity

Continued, in another order:

inhibition at 10 µM (human P2X7 receptor)	inhibition at 10 µM (human P2X4 receptor)	Compound	off‐target activity against the P2X7 receptor (human P2X7 receptor)
4%	-3%	COc1ccc2c(C(=O)c3ccc(Cl)c(Cl)c3)ccn2c1 [Compound 7e, (6‐methoxyindolizin‐1‐yl)(3,4‐dichlorophenyl)methanone]	–
9%	5%	COc1ccc2c(C(=O)c3cc(OC)c(OC)c(OC)c3)c(C)cn2c1 [Compound 8a, (6‐methoxy‐2‐methylindolizin‐1‐yl)(3,4,5‐trimethoxyphenyl)methanone]	–
-2%	0%	COc1ccc2c(C(=O)c3cc(OC)c(OC)c(OC)c3)c(-c3ccc(C)cc3)cn2c1 [Compound 8j, [6‐methoxy‐2‐(p ‐tolyl)indolizin‐1‐yl](3,4,5‐trimethoxyphenyl)methanone]	–
10%	7%	COc1ccc(-c2cn3cc(OC)ccc3c2C(=O)c2cc(OC)c(OC)c(OC)c2)cc1 [Compound 8k, [6‐methoxy‐2‐(4‐methoxyphenyl)indolizin‐1‐yl](3,4,5‐trimethoxyphenyl)methanone]	–
